ChEMBL document CHEMBL5465560, “Selectivity Literature for EUbOPEN Chemogenomic Library” (2024)

Key:
[1] = target: Phosphorylase b kinase gamma catalytic chain, skeletal muscle/heart isoform (Homo sapiens) (UniProt Q16816); assay: Selectivity interaction (KinomeScan (DiscoverX)) EUB0001049a PHKG1; settings: at 1 µM
[2] = target: Tyrosine-protein kinase HCK (Homo sapiens) (UniProt P08631); assay: Selectivity interaction (KinomeScan (DiscoverX)) EUB0001049a HCK; settings: at 1 µM
[3] = target: T1, Mitogen-activated protein kinase kinase kinase 5 (Homo sapiens) (UniProt Q99683); assay: Selectivity interaction (Kinase panel (DSF assay)) EUB0001489b MAP3K5
T1 sequence (whole entry): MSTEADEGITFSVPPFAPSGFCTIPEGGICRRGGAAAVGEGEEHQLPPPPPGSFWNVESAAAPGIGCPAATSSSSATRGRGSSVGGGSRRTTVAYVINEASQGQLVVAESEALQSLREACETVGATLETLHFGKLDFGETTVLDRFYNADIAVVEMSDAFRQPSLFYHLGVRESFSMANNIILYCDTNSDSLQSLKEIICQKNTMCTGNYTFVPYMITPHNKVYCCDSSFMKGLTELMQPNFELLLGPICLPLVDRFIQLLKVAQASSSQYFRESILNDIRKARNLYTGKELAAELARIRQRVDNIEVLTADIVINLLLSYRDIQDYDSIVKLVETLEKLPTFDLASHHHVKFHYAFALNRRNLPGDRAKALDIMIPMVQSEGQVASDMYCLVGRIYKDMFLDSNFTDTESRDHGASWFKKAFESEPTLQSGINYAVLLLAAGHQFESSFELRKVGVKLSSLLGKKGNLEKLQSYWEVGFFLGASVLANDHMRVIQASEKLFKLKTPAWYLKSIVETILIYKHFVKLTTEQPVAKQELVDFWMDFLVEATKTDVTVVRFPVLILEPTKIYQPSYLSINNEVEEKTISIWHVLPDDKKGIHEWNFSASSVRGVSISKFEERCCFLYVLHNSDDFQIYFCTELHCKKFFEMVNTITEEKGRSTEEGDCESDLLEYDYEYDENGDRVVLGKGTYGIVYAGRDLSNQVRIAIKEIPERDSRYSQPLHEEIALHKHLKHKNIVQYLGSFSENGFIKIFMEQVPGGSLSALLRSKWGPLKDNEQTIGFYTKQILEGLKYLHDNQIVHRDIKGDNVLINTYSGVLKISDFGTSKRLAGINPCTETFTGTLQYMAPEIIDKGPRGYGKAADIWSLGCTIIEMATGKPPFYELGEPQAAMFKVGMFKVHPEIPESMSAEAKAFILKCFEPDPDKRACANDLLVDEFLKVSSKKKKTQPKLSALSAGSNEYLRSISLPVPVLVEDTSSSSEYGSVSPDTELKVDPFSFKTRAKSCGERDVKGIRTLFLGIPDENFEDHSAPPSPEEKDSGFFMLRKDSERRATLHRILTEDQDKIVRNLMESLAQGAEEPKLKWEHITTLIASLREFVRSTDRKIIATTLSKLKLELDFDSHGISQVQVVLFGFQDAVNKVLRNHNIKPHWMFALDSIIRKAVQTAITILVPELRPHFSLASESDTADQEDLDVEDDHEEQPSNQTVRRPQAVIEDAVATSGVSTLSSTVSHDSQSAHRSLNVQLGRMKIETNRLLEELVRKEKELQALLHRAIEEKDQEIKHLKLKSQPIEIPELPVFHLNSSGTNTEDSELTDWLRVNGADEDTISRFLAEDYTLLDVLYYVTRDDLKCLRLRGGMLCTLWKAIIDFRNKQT

[4] = target: Ribosomal protein S6 kinase alpha-4 (Homo sapiens) (UniProt O75676); assay: Selectivity interaction (KinomeScan (DiscoverX)) EUB0000092b RPS6KA4; settings: at 10 µM
Chain of Ribosomal protein S6 kinase alpha-4 (Homo sapiens) (O75676 whole entry, looked up): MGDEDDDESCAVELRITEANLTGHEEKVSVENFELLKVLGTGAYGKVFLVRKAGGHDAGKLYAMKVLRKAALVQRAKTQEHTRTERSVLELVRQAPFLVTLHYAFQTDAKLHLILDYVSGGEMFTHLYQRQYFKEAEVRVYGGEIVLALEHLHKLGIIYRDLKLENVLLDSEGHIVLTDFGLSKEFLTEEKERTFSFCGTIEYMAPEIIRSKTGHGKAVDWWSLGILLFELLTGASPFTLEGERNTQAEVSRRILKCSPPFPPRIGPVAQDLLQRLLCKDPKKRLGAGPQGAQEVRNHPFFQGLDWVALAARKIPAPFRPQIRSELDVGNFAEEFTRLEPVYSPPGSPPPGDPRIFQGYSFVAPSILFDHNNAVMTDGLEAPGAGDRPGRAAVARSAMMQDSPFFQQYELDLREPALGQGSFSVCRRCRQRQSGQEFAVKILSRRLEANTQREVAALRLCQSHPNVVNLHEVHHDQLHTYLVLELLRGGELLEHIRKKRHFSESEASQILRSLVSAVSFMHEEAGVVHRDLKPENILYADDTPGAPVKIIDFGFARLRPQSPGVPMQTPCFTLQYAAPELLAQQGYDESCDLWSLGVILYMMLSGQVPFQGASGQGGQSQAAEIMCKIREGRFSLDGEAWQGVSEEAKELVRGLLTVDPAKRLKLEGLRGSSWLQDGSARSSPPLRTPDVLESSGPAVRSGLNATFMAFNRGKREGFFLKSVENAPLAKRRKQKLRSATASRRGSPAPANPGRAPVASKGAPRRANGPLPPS

[5] = target: Platelet-derived growth factor receptor alpha (Homo sapiens, UniProt P16234); assay: Selectivity interaction (Ambit KINOMEscan and KiNATiv profiling in Jurkat cells) EUB0000090b PDGFRA; assay type: cell-based; settings: at 1 µM
Chain of Platelet-derived growth factor receptor alpha (P16234 whole entry): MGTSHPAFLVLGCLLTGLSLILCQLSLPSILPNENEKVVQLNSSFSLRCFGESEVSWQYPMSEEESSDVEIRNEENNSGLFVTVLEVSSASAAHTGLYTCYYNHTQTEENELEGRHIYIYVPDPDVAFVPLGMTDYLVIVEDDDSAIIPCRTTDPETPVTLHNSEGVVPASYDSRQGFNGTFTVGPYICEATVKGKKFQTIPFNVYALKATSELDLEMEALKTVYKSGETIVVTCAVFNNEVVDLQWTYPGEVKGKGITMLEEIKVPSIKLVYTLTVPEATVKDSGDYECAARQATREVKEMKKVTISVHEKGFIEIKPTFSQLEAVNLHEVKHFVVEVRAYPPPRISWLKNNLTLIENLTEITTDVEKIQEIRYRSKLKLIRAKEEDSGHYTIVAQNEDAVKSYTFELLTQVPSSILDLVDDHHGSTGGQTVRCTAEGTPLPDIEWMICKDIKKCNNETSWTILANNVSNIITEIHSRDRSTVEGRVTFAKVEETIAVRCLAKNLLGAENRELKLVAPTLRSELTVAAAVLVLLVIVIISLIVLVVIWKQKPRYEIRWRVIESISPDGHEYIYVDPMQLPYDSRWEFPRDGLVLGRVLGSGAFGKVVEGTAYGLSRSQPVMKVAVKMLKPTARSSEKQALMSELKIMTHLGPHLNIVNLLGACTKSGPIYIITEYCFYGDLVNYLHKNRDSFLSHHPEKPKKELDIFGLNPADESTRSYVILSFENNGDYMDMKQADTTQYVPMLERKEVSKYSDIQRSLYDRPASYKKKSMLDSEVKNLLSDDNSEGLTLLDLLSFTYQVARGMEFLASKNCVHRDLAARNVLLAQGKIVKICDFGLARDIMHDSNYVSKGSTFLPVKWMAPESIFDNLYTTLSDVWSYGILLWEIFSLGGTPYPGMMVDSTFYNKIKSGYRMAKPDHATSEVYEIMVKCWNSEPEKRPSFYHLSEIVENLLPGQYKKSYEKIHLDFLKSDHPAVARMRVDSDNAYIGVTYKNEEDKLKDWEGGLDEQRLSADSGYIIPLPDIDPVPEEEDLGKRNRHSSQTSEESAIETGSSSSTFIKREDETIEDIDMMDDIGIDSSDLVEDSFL

[6] = target: T2, Mitogen-activated protein kinase kinase kinase 15 (Homo sapiens) (UniProt Q6ZN16); assay: Selectivity interaction (KinomeScan (DiscoverX)) EUB0000045b MAP3K15
T2 sequence (whole entry): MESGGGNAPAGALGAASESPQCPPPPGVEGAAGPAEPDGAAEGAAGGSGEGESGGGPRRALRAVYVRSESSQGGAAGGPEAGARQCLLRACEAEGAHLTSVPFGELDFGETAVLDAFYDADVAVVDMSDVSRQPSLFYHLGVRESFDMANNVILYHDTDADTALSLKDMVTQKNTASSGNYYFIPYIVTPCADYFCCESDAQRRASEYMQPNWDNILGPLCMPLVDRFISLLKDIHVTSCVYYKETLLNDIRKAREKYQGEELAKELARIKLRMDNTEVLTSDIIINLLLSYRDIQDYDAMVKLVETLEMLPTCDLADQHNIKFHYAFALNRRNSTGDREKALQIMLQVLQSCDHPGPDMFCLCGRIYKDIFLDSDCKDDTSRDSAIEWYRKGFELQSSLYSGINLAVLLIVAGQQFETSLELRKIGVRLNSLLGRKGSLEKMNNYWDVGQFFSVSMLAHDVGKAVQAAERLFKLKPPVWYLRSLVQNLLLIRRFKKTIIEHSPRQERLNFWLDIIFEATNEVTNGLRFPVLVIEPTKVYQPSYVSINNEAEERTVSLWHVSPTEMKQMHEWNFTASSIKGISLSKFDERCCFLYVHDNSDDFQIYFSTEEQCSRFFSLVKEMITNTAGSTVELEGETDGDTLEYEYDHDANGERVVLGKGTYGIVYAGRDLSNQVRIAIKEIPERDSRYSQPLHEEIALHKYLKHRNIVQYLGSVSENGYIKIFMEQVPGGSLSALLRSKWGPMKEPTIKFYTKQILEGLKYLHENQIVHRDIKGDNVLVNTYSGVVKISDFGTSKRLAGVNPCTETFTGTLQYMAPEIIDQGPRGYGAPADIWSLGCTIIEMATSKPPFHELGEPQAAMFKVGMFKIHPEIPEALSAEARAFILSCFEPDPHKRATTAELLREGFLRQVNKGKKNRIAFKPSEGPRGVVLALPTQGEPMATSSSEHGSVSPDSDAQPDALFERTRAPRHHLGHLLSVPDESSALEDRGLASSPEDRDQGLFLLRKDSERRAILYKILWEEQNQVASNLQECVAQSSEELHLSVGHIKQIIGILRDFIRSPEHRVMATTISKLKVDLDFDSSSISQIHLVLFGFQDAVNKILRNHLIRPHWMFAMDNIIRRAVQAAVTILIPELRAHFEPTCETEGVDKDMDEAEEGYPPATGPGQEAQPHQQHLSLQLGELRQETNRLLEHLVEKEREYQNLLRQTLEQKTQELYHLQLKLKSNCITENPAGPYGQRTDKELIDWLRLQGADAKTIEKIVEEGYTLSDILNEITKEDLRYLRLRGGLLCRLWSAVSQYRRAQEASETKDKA

[7] = target: Mitogen-activated protein kinase kinase kinase kinase 1 (Homo sapiens) (UniProt Q92918); assay: Selectivity interaction (KinomeScan (DiscoverX)) EUB0001619a MAP4K1; settings: at 1 µM
Chain of Mitogen-activated protein kinase kinase kinase kinase 1 (Homo sapiens) (Q92918 whole entry, looked up): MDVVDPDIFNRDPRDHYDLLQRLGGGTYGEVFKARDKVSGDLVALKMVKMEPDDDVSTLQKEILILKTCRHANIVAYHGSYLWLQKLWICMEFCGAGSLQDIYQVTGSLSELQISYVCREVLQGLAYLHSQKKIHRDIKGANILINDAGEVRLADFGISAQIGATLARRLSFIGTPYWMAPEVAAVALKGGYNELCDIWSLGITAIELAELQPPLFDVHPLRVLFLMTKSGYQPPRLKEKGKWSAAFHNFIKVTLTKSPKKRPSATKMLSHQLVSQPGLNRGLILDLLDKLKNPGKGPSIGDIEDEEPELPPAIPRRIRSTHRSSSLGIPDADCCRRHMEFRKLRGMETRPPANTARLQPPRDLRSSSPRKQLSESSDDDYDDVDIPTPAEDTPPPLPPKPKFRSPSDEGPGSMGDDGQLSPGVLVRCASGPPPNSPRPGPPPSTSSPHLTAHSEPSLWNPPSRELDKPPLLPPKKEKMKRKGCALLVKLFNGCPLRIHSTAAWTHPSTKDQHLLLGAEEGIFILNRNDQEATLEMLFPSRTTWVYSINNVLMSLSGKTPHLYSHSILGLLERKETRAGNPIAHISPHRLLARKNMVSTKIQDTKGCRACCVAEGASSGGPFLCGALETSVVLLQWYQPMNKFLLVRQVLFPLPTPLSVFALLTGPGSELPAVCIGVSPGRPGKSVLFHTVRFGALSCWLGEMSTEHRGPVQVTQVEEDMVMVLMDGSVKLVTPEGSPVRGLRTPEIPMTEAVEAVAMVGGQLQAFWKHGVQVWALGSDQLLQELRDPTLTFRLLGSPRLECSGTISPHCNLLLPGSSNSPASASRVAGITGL

Chain of Phosphorylase b kinase gamma catalytic chain, skeletal muscle/heart isoform (Homo sapiens) (Q16816 whole entry, looked up, canonical isoform): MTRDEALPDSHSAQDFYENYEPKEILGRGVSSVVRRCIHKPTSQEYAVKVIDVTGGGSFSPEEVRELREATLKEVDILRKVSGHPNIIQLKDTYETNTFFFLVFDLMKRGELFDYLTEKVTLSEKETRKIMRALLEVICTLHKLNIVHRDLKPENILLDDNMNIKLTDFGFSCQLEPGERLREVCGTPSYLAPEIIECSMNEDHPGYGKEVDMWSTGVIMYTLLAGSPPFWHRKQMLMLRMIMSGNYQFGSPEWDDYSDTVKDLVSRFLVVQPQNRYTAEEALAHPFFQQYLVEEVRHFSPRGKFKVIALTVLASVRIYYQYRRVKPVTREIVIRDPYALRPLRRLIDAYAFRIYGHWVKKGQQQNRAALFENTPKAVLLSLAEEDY
Chain of Tyrosine-protein kinase HCK (Homo sapiens) (P08631 2-526 limits assumed): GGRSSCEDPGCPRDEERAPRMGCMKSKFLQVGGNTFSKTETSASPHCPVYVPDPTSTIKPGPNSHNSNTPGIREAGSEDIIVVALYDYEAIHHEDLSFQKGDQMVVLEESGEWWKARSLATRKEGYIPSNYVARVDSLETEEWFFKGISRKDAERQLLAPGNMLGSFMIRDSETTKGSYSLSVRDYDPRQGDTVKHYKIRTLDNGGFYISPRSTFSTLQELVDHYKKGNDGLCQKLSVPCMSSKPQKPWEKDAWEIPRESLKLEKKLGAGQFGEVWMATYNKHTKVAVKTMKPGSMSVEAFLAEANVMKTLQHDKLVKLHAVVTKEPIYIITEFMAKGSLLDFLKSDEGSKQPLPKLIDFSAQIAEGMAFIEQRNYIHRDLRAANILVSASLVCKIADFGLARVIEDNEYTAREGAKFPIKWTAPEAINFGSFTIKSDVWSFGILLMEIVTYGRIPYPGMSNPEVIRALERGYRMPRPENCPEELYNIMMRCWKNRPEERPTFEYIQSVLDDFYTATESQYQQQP

COc1cc(Nc2nc(C)cc(-c3cnn4nc(OC)ccc34)n2)cc(C(F)(F)F)c1
% of control [1]: 85%
% of control [2]: 100%

CN1CCN(C(=O)c2ccc3cc2OCCOCCNc2ccn4ncc-3c4n2)CC1
dTM [3]: 3.2 K

CCC(=O)N1CCN(c2ccc(-n3c(=O)ccc4cnc5ccc(-c6cnc7ccccc7c6)cc5c43)cc2C(F)(F)F)CC1
% of control [4]: 100%

CN(C)C/C=C/C(=O)Nc1ccc(C(=O)N2CCCC(Nc3ncc(Cl)c(-c4c[nH]c5ccccc45)n3)C2)cc1 (stereo not drawn)
% of control [5]: 91%

C=CC(=O)Nc1cc(-n2c(=O)ccc3cnc4ccc(-c5ccc(NS(C)(=O)=O)cc5)cc4c32)ccc1C
% of control ([6]; at 1 µM): 70%
% of control ([6]; at 10 µM): 100%

N#Cc1cccc(-c2c[nH]c3ncnc(N4CCOCC4)c23)c1
% of control [7]: 79%
